{"source": "patent US8273730B2", "about": "“Use of estriol in low doses” (Italfarmaco, SA, priority 2007, dated 2012)", "test_system": "vaginal atrophy in female ovariectomized Wistar Han rats", "assay": "Assay I: assessment of the effect on vaginal atrophy (vaginal smears: cornified cells, maturation index, overall trophism)", "type": "in vivo, rat", "details": "dose 10 times less than the usual dose; rats of both groups (cream and gel)", "experimental": "In this study a total of 8 female ovariectomized Wistar Han rats were used, which were randomly distributed into 2 groups with 4 animals each. Group A was treated with Formulation 1 whereas Group B was treated with Formulation 2.\nAfter 18 days had elapsed from the reception of the ovariectomized animals, several vaginal smears were periodically performed in each rat, until the menopausal condition (particularly vaginal atrophy) was verified in all the rats, determining the maturation index of the vaginal epithelium.\nOnce the treatment had started, Formulations 1 (0.005% estriol cream) and 2 (0.005% estriol gel) were administered to experimental Group A and B, respectively, once a day for 5 days. The administration was carried out by vaginal route, in an amount of 5.8 mg of formulation/animal (corresponding to 0.29 μg of estriol/animal), using a positive displacement multipipette equipped with a special tip. […]\nThe effect of the treatment with each of the formulations was assessed by means of the appearance of cornified cells, the determination of the maturation index of the vaginal epithelium and the evaluation of the overall trophism."}
{"smiles": "C[C@]12CC[C@@H]3c4ccc(O)cc4CC[C@H]3[C@@H]1C[C@@H](O)[C@@H]2O", "note": "[estriol]", "values": [{"measurement": "Effect on vaginal atrophy condition", "result": "reverses the vaginal atrophy condition"}]}
